Assay results taken from patent US20250251402A1, “METHODS OF DETECTING MOLECULAR AGGREGATES USING IMAGE CORRELATION SPECTROSCOPY (ICS)” (The General Hospital Corporation, priority 2022, published 2025).

Assays:
Type in all cases: cell-based
[1] = tested on: WPMY-1 cells; test: Autocorrelation (ICS DA) of 53BP1 in phenotypic screen images, WPMY-1
Procedure: (§1) Images from the original study (8) were accessed through the Image Data Resource (32) API on the Open Microscopy environment. Nuclei were segmented using StarDist (33) on the BFP channel image. Segmented nuclei were then analyzed by image correlation spectroscopy autocorrelation (34) in the TP53BP1 channel and the average degree of aggregation (DA) was calculated.
(§2) We accessed the original phenotypic screen (8) images through the IDR API on the Open Microscopy server. The screen contained three different cell lines that had endogenous TP53BP1 labeled GFP as a marker protein. We first identified all the images from these three cell lines (>60,000 images in total), then segmented the nuclei of each cell using the BFP channel image. Segmented nuclear regions were then transferred to the TP53BP1 image and image autocorrelation was performed on each nucleus. The degree of aggregation (DA, a measurement of fluorophore clustering) for each nucleus was then averaged to produce an overall image 53BP1 DA that corresponded to the compound and compound concentration. The dataset contained repeats of four different doses for each compound. The activity of each compound in each cell line was then determined by fitting a linear regression to the DA as a function of compound concentration. The slope and significance versus the null hypothesis (slope equal to zero) of DA vs. concentration was then determined.
(§3) 53BP1 DA is a measure of protein labeled fluorophore clustering within the nucleus. […] Increases in 53BP1 recruitment can occur either through induction of DNA damage or altered repair pathways, such as shifting the response from homologous recombination to non-homologous end joining.

[2] = tested on: 53BP1; test: Autocorrelation (ICS DA) of 53BP1 in phenotypic screen images, cell line not specified; settings: at least one cell line of A549, WPMY-1, HepG2
Procedure: as §1, with “calculated. […] Active compounds were defined as having significant (p<0.05) non-zero linear regressions, either negative or positive. The activity score was determine by summing the direction of each active compound and dividing by the total number of compounds in the MoA.” for “calculated.”
as §2, with “determined. Active compounds were defined as those having a significant (p<0.05) slope of DA vs. concentration.” for “determined.”
53BP1 DA is a measure of protein labeled fluorophore clustering within the nucleus. […] Yet, given the highly characterized role of 53BP1 in the DNA damage response (9), recruitment to DNA damage response foci is likely the most prominent driver of measured activity.

[3] = tested on: A549 cells; test: Autocorrelation (ICS DA) of 53BP1 in phenotypic screen images, A549
Procedure: as §1, §2, §3

[4] = tested on: HepG2 cells; test: Autocorrelation (ICS DA) of 53BP1 in phenotypic screen images, HepG2
Procedure: as §1, §2, §3

[5] = tested on: SKOV3 cells; test: γH2AX immunofluorescence in SKOV3 cells (intensity, Imaris Spots, ICS TNoP and DA)
Text: (§4) For the ICS analysis, nuclei were segmented from the DAPI channel using a watershed approach in MATLAB. Briefly, we applied a difference of gaussians for size-based feature extraction of nuclei in the image (upper gaussian σ=100, lower gaussian σ=2-5 dependent on cell size). This feature enhanced image was then binarized to create a primary mask (using the function imbinarize) and connected components under 100 pixels were removed (using the function bwareaopen). We then created a distance transform of the resulting binary image (using the function bwdist). Seed points were determined by finding the regional maximum of a gaussian filtered image, with a gaussian σ of appropriate size for seed point detection (σ×7 or 8 dependent on cell size). The seed points were applied to the distance transform, and we applied the watershed function to the resulting image to obtain masks for each nucleus (extracted using the function regionprops).
(§5) Using the nucleus masks, we performed ICS analysis on the antibody-stained channel, within size limitations for a nucleus (objects >400 and <2400 pixels). Intensity, DA and TNOP were calculated for each cell. In this analysis, since the ROI is defined by the nucleus mask (segmented from nuclear signal using DAPI staining), TNoP represents the total number of particles per nucleus, with the image area being the number of pixels in each nuclear mask.
(§6) Measurements across experiments were normalized by the control in each dataset. […] Data were plotted in Prism and statistical analysis was performed in Excel.
(§7) Imaris spots analysis were performed with Imaris 9.8 with background subtraction, using a spot size of 1 μm that was measured from the smallest distinguishable foci from the control image. For images with multiple nuclei, ImarisCell was used with the detection type “cell and vesicles”, where the nucleus in the DAPI channel was modelled as the “cell” and antibody-labeled foci were modelled as the “vesicles”. This enabled us to count the number of foci per nucleus for multiple cells. In each dataset, the automatic “quality” threshold was determined from the control image and the same threshold was used for every image in the dataset to be able to compare the outputs across datasets. Similar to the ICS analysis, only cells with an area between 400-2400 voxels were included for analysis.
(§8) All chemicals were purchased from Sigma unless otherwise noted. All drugs were purchased from Selleck Chemicals. Cells were cultured in media supplemented with 10% fetal bovine serum and 1% penicillin/streptomycin. OVCA429 were originally obtained from Dr. Michael Birrer and cultured in DMEM. SKOV3 was obtained from ATCC and cultured in RPMI. For MMS treatment, cells were incubated for 6 hours before fixation with 4% formaldehyde, whereas for treatment with PARP inhibitors, cells were incubated for 24 hours before fixation.
(§9) Cells were plated in 8-well slides (Fisher) to achieve 50% confluence overnight. Cells were then treated and fixed with 4% formaldehyde in PBS at room temperature for 10 minutes. Antibody staining was performed according to the manufacturers protocol (Cell Signaling Technologies or Abcam). Primary antibodies used were γH2AX (CST, #2577), RPA1 (CST, #2267) and RAD51 (Abcam, 63801), with Anti-rabbit IgG Fab2 Alexa Fluor 647 (CST, #4414) as the secondary fluorescent antibody. After antibody labeling, prolong gold with DAPI (CST) was added and samples were stored for up to 1 week prior to imaging. Confocal imaging was performed on an Olympus FV1000 multiphoton/confocal microscope using an Olympus XLUMPlanFL N 20× objective, NA 1.00 with chromatic correction, and 3× digital zoom. DAPI was excited with a 405 nm laser, while Alexa Fluor 647 was excited with a 635 nm laser. A multiband (DM 405/488/561/633 nm) dichroic mirror was used to direct the excitation laser and collect emission. […]

[6] = tested on: HCC1937 cells; test: 53BP1-mApple condensate anisotropy (homo-FRET) and intensity in HCC1937 cells
Procedure: All fluorescence imaging was performed on an Olympus FV1000 multiphoton/confocal microscope. Anisotropy measurements were performed through custom modifications to the imaging system as previously described (30). Briefly, linear polarization of two photon excitation light at 910 nm (MaiTai femtosecond laser, Spectra Physics) was controlled by a glan-thompson prism and half wave plate. […] was collected in orthogonal orientations through two detectors, parallel and perpendicular to excitation polarization, through a polarizing beam splitter that replaced a dichroic mirror in the emission filter cube. The alignment and detector gain and noise were validated each imaging session through measurements of a standard slide. Images were taken with an Olympus 25× XLPlan N objective, NA 1.05, and 3× digital zoom. Confocal imaging was performed with an Olympus XLUMPlanFL N 20× objective, NA 1.00 with chromatic correction, and 3× digital zoom.
Cells were grown on 12 mm round, uncoated, sterilized glass coverslips in 24-well plates for 24 hours. Cells were treated with PARPi and 100 μM TMZ for 1 hour or 10 nM GMX1778 overnight followed by 100 μM TMZ for 1 hour. TMZ was added to stimulate new DNA damage induced condensates in the presence of PARPi or NAD″ depletion. Cells were then transferred to the microscope for anisotropy imaging. Images were analyzed in MATLAB. Nuclei were segmented through intensity thresholding and condensates were segmented through further intensity thresholding with a higher threshold. Values of segmented nuclei and condensates were determined through the regionprops function. Segmentation was corrected through area restrictions to ensure that regions of interest were isolated condensates. The thresholding parameters were consistent throughout experiments. The average intensity and anisotropy of each segmented nuclei or condensate was then calculated. Data were plotted in Prism and analysis performed in Prism or Excel.

[7] = tested on: OVCA429 cells; test: γH2AX immunofluorescence in OVCA429 cells (intensity, Imaris Spots, ICS TNoP and DA)
Text: as §4, §5, §6, §7, §8, §9

[8] = tested on: HT1080 cells; test: γH2AX immunofluorescence ICS DA and nuclear intensity in HT1080 cells; settings: HT1080, 10 nM GMX1778 for 24 hours vs control
Procedure: Cells were plated in 8-well […] slides (Thermo or Ibidi) to achieve 50% confluence overnight. Cells were then treated and fixed with 4% paraformaldehyde in PBS at room temperature for 10 minutes. Antibody staining was performed according to the manufacturers protocol. Following fluorescent secondary antibody labeling, prolong gold with DAPI (Cell Signaling Technologies) was added and samples were stored for up to 1 week prior to imaging.
ICS analysis was performed in MATLAB as previously described (41). Briefly, nuclei were segmented from the DAPI channel with the MATLAB function, imbinarize, converting the greyscale image to a binary dependent on an automatically defined threshold. The MATLAB function, regionprops, was used to identify single nuclei as objects. Each nucleus was used as a mask to perform ICS analysis on the antibody-stained channel, within size limitations for a nucleus (objects >400 and <3000 pixels). To ensure the analysis of antibody stained nuclei, nuclei under an average intensity of 200 au after background subtraction were excluded. The spatial autocorrelation functions were calculated using Fourier methods, then fit to a 2D Gaussian using a nonlinear least-squares algorithm (41). Using the outputs of the fitting, the mean number of independent emitting fluorescent entities per focal spot area and subsequently the DA were determined (59). DA measurements across experiments were normalized by the control in each dataset. […] Any DA values exceeding 3 standard deviations from the mean were defined as incorrectly segmented and removed. Data were plotted in Prism and analysis performed in Prism or Excel.

[9] = HCC1937, 10 nM GMX1778 overnight then 100 μM TMZ 1 hour

Compound: S=P(N1CC1)(N1CC1)N1CC1 [thiotepa]
- 53BP1 DA vs. concentration regression (53BP1 recruitment) [1]: strong inducers of 53BP1 recruitment

Compound: COc1ccc(C(=O)C2CCN(CC(=O)N(Cc3nc4c(c(=O)[nH]3)COCC4)CC3CC3)CC2)cc1 [NVP-TNKS656]
- 53BP1 DA vs. concentration regression (53BP1 recruitment) [2]: increased 53BP1 recruitment

Compound: O=c1[nH]cnc2ccccc12 [4-HQN]
- 53BP1 DA vs. concentration regression (53BP1 recruitment) [2]: increased 53BP1 recruitment

Compound: Cc1nc2c(O)cccc2c(=O)[nH]1 [NU 1025]
- 53BP1 DA vs. concentration regression (53BP1 recruitment) [2]: increased 53BP1 recruitment

Compound: COc1ccccc1S(=O)(=O)Nc1ccc2c(c1)CN(C)C(=O)N2 [PFI-1]
- 53BP1 DA vs. concentration regression (53BP1 recruitment) [3]: strong positive activity
- 53BP1 DA vs. concentration regression (53BP1 recruitment) [4]: strong positive activity

Compound: NC(=O)c1cccc(N)c1 [3-aminobenzamide]
- 53BP1 DA vs. concentration regression (53BP1 recruitment) [1]: reduced 53BP1 recruitment
- 53BP1 DA vs. concentration regression (53BP1 recruitment) [3]: reduced 53BP1 recruitment
- 53BP1 DA vs. concentration regression (53BP1 recruitment) [4]: reduced 53BP1 recruitment

Compound: O=C(CCCCCCC(=O)Nc1ccccc1)NO [SAHA]
- 53BP1 DA vs. concentration regression (53BP1 recruitment) [1]: strong inducers of 53BP1 recruitment

Compound: NC(=O)c1cccc(-c2cc(Nc3ccc(OC(F)(F)F)cc3)ncn2)c1 [GNF 2]
- 53BP1 DA vs. concentration regression (53BP1 recruitment) [3]: reduced 53BP1 recruitment
- 53BP1 DA vs. concentration regression (53BP1 recruitment) [4]: reduced 53BP1 recruitment

Compound: Cc1nc(NC(=O)N2CCC[C@H]2C(N)=O)sc1-c1csc(C(C)(C)C)n1 [A66]
- 53BP1 DA vs. concentration regression (53BP1 recruitment) [1]: strong inducers of 53BP1 recruitment

Compound: O=C(c1cc(Cc2n[nH]c(=O)c3ccccc23)ccc1F)N1CCN(C(=O)C2CC2)CC1 [olaparib]
- ICS TNoP of γH2AX, dose dependence ([5]; SKOV3): slight TNOP dose dependence
- Number of γH2AX spots determined by Imaris ([5]; SKOV3, 100 μM olaparib vs 10 μM dose): not significant compared to the 10 μM dose
- 53BP1-mApple condensate anisotropy vs control ([6]; HCC1937, 1 μM PARPi and 100 μM TMZ for 1 hour): significantly lower condensate anisotropy compared to control
- ICS DA of γH2AX, dose dependence ([7]; OVCA429): full dose dependent increases in γH2AX clustering
- Imaris Spots analysis of γH2AX, dose dependence ([7]; OVCA429): able to capture olaparib dose dependence
- γH2AX intensity, dose dependence ([7]; OVCA429, PARP inhibitors): did not show a dose dependence

Compound: N#CN=C(NCCCCCCOc1ccc(Cl)cc1)Nc1ccncc1 [GMX1778]
- γH2AX ICS DA [8]: significantly increased
- γH2AX levels (nuclear intensity) [8]: no significant difference
- 53BP1-mApple condensate anisotropy vs control [6, 9]: significantly lowered condensate anisotropy
- 53BP1-mApple condensate intensity vs control [6, 9]: without impacting condensate intensity

Compound: Cc1c(-c2cnccn2)ssc1=S [oltipraz]
- 53BP1 DA vs. concentration regression (53BP1 recruitment) [1]: two of the strongest 53BP1 recruitment-reducing compounds

Compound: Cc1cc(C)c(C)c(S(=O)(=O)Nc2ccc(N3CC[C@H](C(=O)O)C3)c3ccccc23)c1C [RA839]
- 53BP1 DA vs. concentration regression (53BP1 recruitment) [1]: two of the strongest 53BP1 recruitment-reducing compounds

Compound: CCCOc1ccc(CCc2nc3cc(-c4c(C)noc4C)ccc3n2CCN2CCOCC2)cc1 [PF CBP1]
- 53BP1 DA vs. concentration regression (53BP1 recruitment) [1]: strong activity
